This is an account of results in PMC6414200, “Stepwise activation mechanism of the scramblase nhTMEM16 revealed by cryo-EM” (eLife, 2019).

For this experiment, the target named is T1, nhTMEM16 (Fusarium vanettenii, UniProt C7Z7K1).
T1 construct: gene NECHADRAFT_66456; full open reading frame, N-terminal SBP-Myc-3C tag kept for scrambling assay; expressed in S. cerevisiae FGY217, purified in DDM, reconstituted into liposomes; homodimer
T1 sequence (C7Z7K1 1-735): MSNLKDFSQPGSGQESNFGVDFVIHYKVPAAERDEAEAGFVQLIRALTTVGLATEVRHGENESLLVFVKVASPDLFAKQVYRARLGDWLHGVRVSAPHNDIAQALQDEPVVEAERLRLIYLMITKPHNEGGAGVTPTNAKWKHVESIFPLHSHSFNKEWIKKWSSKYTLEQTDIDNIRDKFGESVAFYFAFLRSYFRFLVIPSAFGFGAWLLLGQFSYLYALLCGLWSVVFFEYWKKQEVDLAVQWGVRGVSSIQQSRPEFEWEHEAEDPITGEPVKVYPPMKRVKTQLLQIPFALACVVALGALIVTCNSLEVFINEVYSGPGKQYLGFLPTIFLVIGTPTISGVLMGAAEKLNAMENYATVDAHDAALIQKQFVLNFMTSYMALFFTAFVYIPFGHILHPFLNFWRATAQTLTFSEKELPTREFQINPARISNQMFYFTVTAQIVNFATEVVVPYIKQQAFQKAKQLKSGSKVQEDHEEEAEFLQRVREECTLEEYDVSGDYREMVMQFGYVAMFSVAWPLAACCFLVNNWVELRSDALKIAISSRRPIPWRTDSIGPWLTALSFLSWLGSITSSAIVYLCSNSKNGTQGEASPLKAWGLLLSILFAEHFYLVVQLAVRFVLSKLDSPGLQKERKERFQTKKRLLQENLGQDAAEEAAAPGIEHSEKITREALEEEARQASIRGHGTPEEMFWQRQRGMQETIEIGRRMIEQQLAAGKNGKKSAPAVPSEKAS
The experiment is described as follows: proteoliposome scrambling assay, dithionite quenching of NBD fluorescence. The format is biochemical. Particulars: Ca2+-stimulated with basal activity without Ca2+; E. coli polar lipids/egg PC 3:1, pH 7.5, 300 mM KCl; labelled compound; lipid transport (flip-flop).

SMILES strings stand for the structures.

On to `CCCCCCCC/C=C\CCCCCCCC(=O)OC[C@H](COP(=O)(O)OCCN)OC(=O)CCCCCNc1ccc([N+](=O)[O-])c2nonc12` [18:1-06:0 NBD-PE], for which the “proteoliposome scrambling assay, dithionite quenching of NBD fluorescence” value is recorded as “Traces depict sections of the fluorescence decrease of tail-labeled NBD-PE lipids after addition of dithionite”.
